Results as given in patent publication US4992448A, “Benzocycloalkylaminopyridinamines and related compounds as topical antiinflammatory agents for the treatment of skin disorders” (Hoechst-Roussel Pharmaceuticals Inc., priority 1989, dated 1991).

Tests used:
[1] = test system: ear edema induced by topical application of TPA; assay: TPA-Induced Ear Edema (TPAEE); type: in vivo, Female Swiss WEbster mice; conditions: for TPAEE (10 μg): 10 μg/ear test compound topical, TPA 10 μg/ear, ear punch weight after five hours
Method: TPA-Induced Ear Edema (TPAEE) The purpose of this assay was to determine the ability of a topically-applied compound to prevent ear edema induced by topical application of TPA (phorbol 12/myristate acetate). Female Swiss WEbster mice topically received TPA (10μg/ear) on the right ear and vehicle on the left ear. The test compound (10μg/ear) was applied to both ears. After five hours, the animals were sacrificed and an ear punch (4 mm) was taken from each ear. The difference in right and left ear punch weights for each animal was determined to uses activity. […] See Yound, J. M. et. al., J. Invest.

porcine pancreatic PLA2 = porcine pancreatic PLA2 (Sus scrofa, UniProt P00592); assay: In Vitro Phospholipase A2 Assay (PLA2); type: biochemical; conditions: 0.01 M test compound; porcine pancreatic PLA2 (3.2 units), pH 8.0, 37° C.
Method: In Vitro Phospholipase A2 Assay (PLA2) The ability of a compound to modulate PLA2 activity (clevage of ^14 -dipalmitoyl phosphotidylcholine at the 2-position to ^14 C-palmitic acid) was quantitated in this assay. […] The reaction was run at 37° C. in a shaking incubator. The reaction was quenched and an internal standard was added in order to determine sample recovery. The samples were loaded onto D18 columns, eluted with ethanol, and the radioactivity was then measured.

[2] = test system: Phospholipase A2 -induced paw edema; assay: Phospholipase A2-induced Paw Edema (PIPE); type: in vivo, male Wistar rats; conditions: for PIPE (0.1 M), difference in edema vs. control: 0.1 M test compound injected with PLA2 (3 units/paw), subplantar, rat left hind paw, two hours post administration
Method: Phospholipase A2 -induced Paw Edema (PIPE) A2 -induced paw edema in male Wistar rats (100-125 g) was measured. PLA2 (3 units/paw) alone or with 0.1 M of the test compound was injected in the subplantar region of the rat left hind paw. Immediately subsequent to the injection and at two hours post administration the paw was immersed in a mercury bath, and paw displacement was measured on a recorder via a transducer. […] See Giessler, A. J. et. al., Agents and Actions, Vol. 10, Trends in Inflammation Research (1981), p. 195.

porcine pancreatic PLA2, sequence (P00592 23-146): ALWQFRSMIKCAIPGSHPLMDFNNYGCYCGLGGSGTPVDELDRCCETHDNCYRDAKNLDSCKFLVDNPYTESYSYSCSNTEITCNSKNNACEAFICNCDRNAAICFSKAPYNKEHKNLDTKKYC

| Structure (SMILES) | TPAEE (10 μg) [1] [%] | inhibition at 10000 µM (porcine pancreatic PLA2) [%] | PIPE (0.1 M), difference in edema vs. control [2] [%] | ED50 (TPAEE standard) ([1]; standard, TPA-induced mouse ear edema, topical) [μg/ear] | ED50 (PIPE standard) ([2]; standard, PLA2-induced rat paw edema) [M] |
| --- | --- | --- | --- | --- | --- |
| Nc1cc[n+]([O-])cc1N1CCc2ccccc2C1 | -45 | 59 | -42 |  |  |
| Nc1cnccc1N1CCc2ccccc21 [1-(3-Amino-4-pyridinyl)-2,3-dihydro-1H-indole] | -74 | 42 | -34 |  |  |
| Nc1ccncc1N1CCc2ccccc21 [1-(4-Amino-3-pyridinyl)-2,3-dihydro-1H-indole] | -35 | 85 | -33 |  |  |
| C[C@]12CCC(=O)C=C1CC[C@@H]1[C@@H]2[C@@H](O)C[C@@]2(C)[C@H]1CC[C@]2(O)C(=O)CO [hydrocortisone, reference compound] |  |  |  | 47 | 0.46 |
